From patent US8404677B2, “Kinase inhibitors” (Genosco, priority 2009, dated 2013)

Tests used:
truncated human LRRK2 = truncated human LRRK2 (Homo sapiens, UniProt Q5S007); assay: Inhibition of enzymatic kinase activity (LANCE Ulight); type: biochemical
Procedure: (§1) Inhibition of Enzymatic SYK, ZAP70, PYK2, FAK, PIM1, RET, FLT3, JAK2 and LRRK2 Kinase Activity
(§2) Compounds of the invention were initially diluted to 10 mM in 100% DMSO (CALBIOCHEM™) for storage and made into kinase buffer solution to create a compound concentration ranging from 1 uM and 10 uM. Serial dilutions of compounds of the invention were dispensed into a 96-well plate (GREINER BIOSCIENCES™) at 6 μL each. Purified full-length human SYK, ZAP70, PIM1, PYK2 and truncated human FAK, RET, FLT3, JAK2, and LRRK2 (CARNA BIOSCIENCES™) were diluted in kinase buffer and added to the compound solutions and pre-incubated for 30 minutes at room temperature (1 hour for PYK2). […] The reaction mixture was incubated for 1 hour (2 hours for PYK2). Following the incubation, the stop solution made with EDTA, water, and Lance detection buffer ([…]™) was added (12 μL each) to stop phosphorylation.

[1] = test system: SN4741 cells overexpressing LRRK2 wild-type; assay: Neuroprotection from LRRK2-mediated dopaminergic cell death (H2O2, crystal violet); type: cell-based, murine; conditions: for Percent Cell Death: LRRK2 WT, 100 μM hydrogen peroxide
Procedure: (§3) SN4741, a murine dopaminergic cell line were cultured in DMEM containing 10 FBS at 37° C., respectively. SN4741 cells (1.5×10^4/well) were seeded in 48 well plates 1 day before transient transfection with 1 μg of the pcDNA3.1 plasmids of either vector, LRRK wildtype cDNA, LRRK G2019S cDNA, by standard CaCl2 precipitation. Two days after transfection, cells were treated with 100 μM hydrogen peroxide for 1 day and cell viability was measured by crystal violet assay. For compound treatment, the test compounds were added at 0.05 μM, 0.5 μM and 5 μM and the cells were incubated for 1 hour prior to the addition of hydrogen peroxide.
(§4) SN4741 cells were transfected with plasmids containing the LRRK2 wild-type or G2019S and incubated them for 2 days followed by addition of 100 μM of hydrogen peroxide for 24 h to sensitize them to oxidative stress. Cell survival was assessed using the crystal violet.

[2] = test system: SN4741 cells transfected with vector; assay: as above; type: cell-based, murine; conditions: 100 μM hydrogen peroxide
Procedure: as §3, §4

[3] = test system: SN4741 cells overexpressing LRRK2 G2019S; assay: as above; type: cell-based, murine; conditions: for Percent Cell Death: 100 μM hydrogen peroxide
Procedure: as §3, §4

truncated human FLT3 = target: T1, truncated human FLT3 (Homo sapiens, UniProt P36888); assay: Inhibition of enzymatic kinase activity (LANCE Ulight); type: biochemical
T1 construct: truncated human FAK, RET, FLT3, JAK2, and LRRK2 (CARNA BIOSCIENCES™); purchased Carna Biosciences
T1 sequence (P36888 564-993 limits assumed): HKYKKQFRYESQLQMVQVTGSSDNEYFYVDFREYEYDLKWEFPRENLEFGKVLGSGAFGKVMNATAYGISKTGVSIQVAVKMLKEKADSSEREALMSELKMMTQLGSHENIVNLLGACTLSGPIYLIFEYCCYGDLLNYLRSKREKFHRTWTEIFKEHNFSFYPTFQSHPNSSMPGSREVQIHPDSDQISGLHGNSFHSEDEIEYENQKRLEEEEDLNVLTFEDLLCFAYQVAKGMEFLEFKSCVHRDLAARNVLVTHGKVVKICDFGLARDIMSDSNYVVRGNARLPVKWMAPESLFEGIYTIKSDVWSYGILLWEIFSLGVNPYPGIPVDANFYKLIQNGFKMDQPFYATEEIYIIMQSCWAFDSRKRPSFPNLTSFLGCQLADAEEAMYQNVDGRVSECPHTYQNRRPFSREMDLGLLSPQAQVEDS
Procedure: as §1, §2

truncated human JAK2 = target: T2, truncated human JAK2 (Homo sapiens, UniProt O60674); assay: as above; type: biochemical
T2 construct: truncated human FAK, RET, FLT3, JAK2, and LRRK2 (CARNA BIOSCIENCES™); purchased Carna Biosciences
Procedure: as §1, §2

truncated human RET = target: T3, truncated human RET (Homo sapiens, UniProt P07949); assay: as above; type: biochemical
T3 construct: truncated human FAK, RET, FLT3, JAK2, and LRRK2 (CARNA BIOSCIENCES™); purchased Carna Biosciences
T3 sequence (P07949 658-1114 limits assumed): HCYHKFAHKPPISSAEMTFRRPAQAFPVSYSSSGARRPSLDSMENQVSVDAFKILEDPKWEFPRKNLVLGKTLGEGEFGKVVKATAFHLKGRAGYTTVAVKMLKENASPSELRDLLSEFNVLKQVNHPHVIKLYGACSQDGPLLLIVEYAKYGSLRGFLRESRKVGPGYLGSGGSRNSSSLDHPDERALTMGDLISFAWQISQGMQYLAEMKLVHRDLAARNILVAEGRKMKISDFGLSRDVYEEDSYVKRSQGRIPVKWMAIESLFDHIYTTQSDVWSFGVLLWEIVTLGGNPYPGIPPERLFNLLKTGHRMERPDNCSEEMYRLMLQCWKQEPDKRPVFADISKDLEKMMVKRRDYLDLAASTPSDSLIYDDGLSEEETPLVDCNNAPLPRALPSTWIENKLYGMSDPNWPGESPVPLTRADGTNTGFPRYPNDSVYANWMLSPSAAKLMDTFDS
Procedure: as §1, §2

[4] = test system: HEL cells expressing human JAK2 V617F; assay: Cell viability assay: JAK2 inhibition; type: cell-based; conditions: for IC50: Homo sapiens, 72-hour incubation
Procedure: Compounds of the invention were tested for cell viability effect on HEL cells. For cell viability assay, HEL cells expressing human JAK2 V617F were obtained from the American Type Culture Collection (ATCC, Manassas, Va.). This cell line was maintained with an Roswell Park Memorial Institute (RPMI) medium (HyClone™) containing 10 bovine calf serum (BCS; Hyclone™) supplemented iron. The HEL cells were seeded at 2×10^4 cells in 96 well culture plates, and serially diluted compound was then added. After a 72-hour incubation period at 37° C., Cell viability was measured using the ATPLite 1 step assay (Perkin-Elmer™) that is based on the quantification of ATP from viable cells. CellTiter Aqueous assay (Promega™) was also performed in parallel as an orthogonal assay. IC50 values were calculated using nonlinear regression and defined as the concentration needed for a 50 reduction in luminescence or absorbance treated versus untreated control cells (Prism™ Software).

[5] = test system: TNF-α release in THP-1 cells, LPS stimulation; assay: SYK independent TNF-α release assay (LPS stimulation); type: cell-based, human; conditions: Homo sapiens; LPS stimulation, At 1 μM, THP-1; read-out: Inhibition of TNF-α Release (percentage inhibition)
Procedure: For SYK independent TNF-α release assay (i.e., via lipopolysaccharide (LPS)-stimulation), THP-1 cells derived from human monocytic cells were obtained from the American Type Culture Collection (ATCC, Manassas, Va.). This cell line was maintained with an RPMI medium (GIBCO™) containing 10 fetal bovine serum (FBS, GIBCO™) and 0.05 mM 2-mercaptoethanol. The THP-1 cells were seeded at 1×10^5 cells/100 μL/well into 96-well culture plates, and treated with lipopolysaccharide (1 μg/ml), and serially diluted compound was then added. After an 18-hour incubation period at 37° C., supernatants were collected for the determination of the TNF-α level by ELISA, and the remaining cells were subjected to an MTT assay to determine the cytotoxic effects of compound.

T2 sequence (O60674 826-1132 limits assumed): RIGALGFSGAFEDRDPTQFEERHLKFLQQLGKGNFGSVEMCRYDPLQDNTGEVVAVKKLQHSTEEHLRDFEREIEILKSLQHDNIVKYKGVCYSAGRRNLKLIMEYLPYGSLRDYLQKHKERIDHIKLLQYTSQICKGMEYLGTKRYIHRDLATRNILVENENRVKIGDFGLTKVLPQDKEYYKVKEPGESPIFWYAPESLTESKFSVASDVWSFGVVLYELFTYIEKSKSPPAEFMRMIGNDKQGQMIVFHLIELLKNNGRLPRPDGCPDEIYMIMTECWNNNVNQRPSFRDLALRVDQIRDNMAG
truncated human LRRK2, sequence (Q5S007 1879-2138 limits assumed): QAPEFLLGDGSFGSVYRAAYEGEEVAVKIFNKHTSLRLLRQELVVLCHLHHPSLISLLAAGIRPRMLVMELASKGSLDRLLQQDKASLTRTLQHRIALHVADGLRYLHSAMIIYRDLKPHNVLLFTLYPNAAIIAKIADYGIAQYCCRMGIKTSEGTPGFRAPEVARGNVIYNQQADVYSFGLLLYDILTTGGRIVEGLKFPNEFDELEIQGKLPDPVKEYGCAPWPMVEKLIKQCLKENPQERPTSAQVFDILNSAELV

## O=c1[nH]ccc2nc(N3CCC(O)CC3)nc(Nc3cc(C(F)(F)F)cc(C(F)(F)F)c3)c12 [Compound 102, 4-(3,5-bis(trifluoromethyl)phenylamino)-2-(4-hydroxypiperidin-1-yl)pyrido[4,3-d]pyrimidin-5(6H)-one]
Truncated human LRRK2
  IC50: 325 nM
[1]; 0.05 uM
  Percent Cell Death: 49.9%
[1]; 0.5 uM
  Percent Cell Death: 55.3%
[1]; 5 uM
  Percent Cell Death: 46.5%
[1]; LRRK2 wild-type, at 0.05 uM and higher, vs vector, DMSO or H2O2 controls
  protective effects against LRRK2-associated cell death: increased protective effects
[2]; 0.05 uM
  Percent Cell Death: 50.0%
[2]; 0.5 uM
  Percent Cell Death: 54.4%
[2]; 5 uM
  Percent Cell Death: 50.5%
[3]; 0.05 uM
  Percent Cell Death: 54.9%
[3]; 0.5 uM
  Percent Cell Death: 56.0%
[3]; 5 uM
  Percent Cell Death: 44.0%
[3]; at 0.05 uM and higher, vs vector, DMSO or H2O2 controls
  protective effects against LRRK2-associated cell death: increased protective effects

## O=c1[nH]ccc2nc(N3CCC(CO)CC3)nc(Nc3ccc(N4CCS(=O)(=O)CC4)cc3)c12 [Compound 137]
Truncated human FLT3
  IC50: 12.4 nM
Truncated human JAK2
  IC50: 1.6 nM
Truncated human RET
  IC50: 5.8 nM
[4]
  inhibition level compared with Sorafenib: inhibition level greater than those exhibited by Sorafenib
  IC50: 89 nM

## O=c1[nH]ccc2nc(N3CCC(CO)CC3)nc(Nc3ccc(N4CCOCC4)cc3)c12 [Compound 139, 2-(4-(hydroxymethyl)piperidin-1-yl)-4-(4-morpholinophenylamino)pyrido[4,3-d]pyrimidin-5(6H)-one]
Truncated human FLT3
  IC50: 9.1 nM
Truncated human JAK2
  IC50: 1.6 nM
Truncated human RET
  IC50: 4.1 nM
[4]
  inhibition level compared with Sorafenib: inhibition level greater than those exhibited by Sorafenib
  times higher inhibition in IC50 than Sorafenib: about 10 time
  IC50: 152 nM

## C[C@@H]1C[C@H]2[C@@H]3CCC4=CC(=O)C=C[C@]4(C)[C@@]3(F)[C@@H](O)C[C@]2(C)[C@@]1(O)C(=O)CO [Dexamethasone, reference compound]
[5]
  inhibition at 1 µM: 68.4%

## CNC(=O)c1cc(Oc2ccc(NC(=O)Nc3ccc(Cl)c(C(F)(F)F)c3)cc2)ccn1 [Sorafenib, reference compound]
[4]
  IC50: > 1000 nM
